Test results taken from PMC5429603, “Discovery and characterization of verinurad, a potent and specific inhibitor of URAT1 for the treatment of hyperuricemia and gout” (Scientific Reports, 2017).
Positions count from the first letter of the chain named. Like-named read-outs stand apart in the source and are kept apart here.

What was measured:
human URAT1 [1] = target: T1, human URAT1 (Homo sapiens, UniProt Q96S37); experiment: URAT1 binding assay with 3H-verinurad, human URAT1 membranes; details: for mode of inhibition of 3H-verinurad binding: human URAT1 membranes
T1 sequence (Q96S37 1-553): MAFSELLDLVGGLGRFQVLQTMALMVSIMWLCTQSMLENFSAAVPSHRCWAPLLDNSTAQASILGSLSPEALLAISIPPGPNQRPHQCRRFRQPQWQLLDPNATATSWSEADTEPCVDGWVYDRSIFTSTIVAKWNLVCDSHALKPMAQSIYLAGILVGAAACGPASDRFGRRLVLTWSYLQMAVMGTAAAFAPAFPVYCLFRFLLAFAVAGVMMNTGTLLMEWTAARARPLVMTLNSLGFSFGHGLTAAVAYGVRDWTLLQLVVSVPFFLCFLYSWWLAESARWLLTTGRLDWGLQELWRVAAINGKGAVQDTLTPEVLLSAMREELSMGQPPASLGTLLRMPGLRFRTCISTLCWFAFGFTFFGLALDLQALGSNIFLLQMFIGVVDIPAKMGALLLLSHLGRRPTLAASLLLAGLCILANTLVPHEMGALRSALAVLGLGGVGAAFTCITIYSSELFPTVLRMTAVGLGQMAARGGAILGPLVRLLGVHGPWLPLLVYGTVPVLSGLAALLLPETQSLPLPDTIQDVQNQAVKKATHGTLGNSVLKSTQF
Description: Membranes were prepared from cells transfected on the previous day with URAT1 expression constructs. Cells (5–10 × 10^8) were harvested in 1 ml ice-cold binding buffer (25 mM HEPES pH 7.3, 125 mM sodium gluconate) containing complete, EDTA-free protease inhibitor cocktail (Sigma). Cells were lysed with 100 strokes in a 2 ml dounce homogenizer using a tight-fitting “B” stem. Lysates were transferred to 1.5 mL Eppendorf tubes and centrifuged at 250 rcf for 5 minutes at 2 °C, and supernatants were transferred to fresh tubes and centrifuged again at 18,000 rcf for 20 minutes at 2 °C. The pellets (membrane fractions) were resuspended in 1 ml of ice-cold binding buffer containing protease inhibitors and frozen at −80 °C. Protein was measured using the Bio-Rad protein assay dye reagent concentrate.
Samples were then rapidly filtered through 25 mm glass fiber/1.2 µM PES 96-well filter plates (Corning FiltrEX 3510), and washed once with 200 µl ice-cold binding buffer. The plates were then subjected to scintillation counting. All samples were assayed in triplicate.
GraphPad Prism software was used for non-linear regression and statistical analyses. […] For kinetic measurements (K m and B max values), the “one site – specific binding” equation was used, after subtracting transport or binding measurements from control transfected cells. Statistical significance was assessed using Student’s unpaired t-tests.

human URAT1 h-F241Y = target: T2, human URAT1 h-F241Y (Homo sapiens, UniProt Q96S37, F241Y); experiment: URAT1 activity assay, h-F241Y; assay type: cell-based
T2 construct: expressed in transfected cells; host or cells: HEK-293T
T2 sequence (Q96S37 1-553 F241Y): T1 sequence (Q96S37 1-553) with F241Y
Text: (§1) Human URAT1 (GenBank BC053348.1, Homo sapiens SLC22A12), rat URAT1 (NCBI NM_001034943.1, Rattus norvegicus Slc22a12) and human OAT4 (NCBI NM_018484.2, Homo sapiens SLC22A11) genes were purchased from Origene Technologies, Inc. and subcloned into pCMV6/neo using NotI. Where indicated, controls transfections used pCMV6/neo. Mutants were produced by site-directed mutagenesis using the QuikChange Lightning Multi Site-Directed Mutagenesis Kit (Agilent Technologies). […] Mutagenic primer sequences are provided in ref. [15] and mutagenic primer sequences for previously unreported mutants shown in Supplementary Table 1. All constructs used in this study were untagged. Human OAT1 was purchased from Fisher Scientific (catalog # MHS1010–7508183 in pSPORT6, NCBI NM_153276.2, Homo sapiens SLC22A6).
(§2) HEK-293T cells were maintained in DMEM/high glucose/L-glutamine/HEPES supplemented with 1 mM sodium pyruvate (Life Technologies) and 10% FBS (PAA Laboratories) at 37 °C in 5% CO2. To express URAT1, OAT4 or OAT1, plasmids were reverse transfected into HEK-293T cells. DNA (10 µg) was mixed with 30 µl of DreamFect Gold (Boca Scientific) in 2 ml OptiMem (Life Technologies). After 20 minutes, 18 ml of media containing 2 × 10^7 cells in suspension was added and mixed, and 200 µl per well were plated onto white clear-bottomed poly-D-lysine coated 96-well plates (BD Biosciences). The cells were assayed the following day.
(§3) URAT1 and OAT4 activity assays were performed in assay buffer consisting of 25 mM MES pH 5.5 (from a 1 M MES solution [Sigma] adjusted to pH 5.5 with sodium hydroxide), 125 mM sodium gluconate, 4.8 mM potassium gluconate, 1.2 mM monobasic potassium phosphate, 1.2 mM magnesium sulfate, 1.3 mM calcium gluconate and 5.6 mM glucose. URAT1 inhibitors were serially diluted into assay buffer and added to the cells for 5 minutes prior to addition of substrate. URAT1-expressing cells were incubated with 100 µM ^14C-uric acid for 10 minutes and OAT4-expressing cells were incubated with 20 µM carboxyfluorescein (Life Technologies, Inc.) for 5 minutes. Cells were then washed three times in 25 mM MES pH 5.5/125 mM sodium gluconate, and solubilized in Ultima Gold (Perkin Elmer) prior to liquid scintillation counting. Each treatment was measured in triplicate.

human URAT1 [2] = target: T1, human URAT1; experiment: URAT1 activity assay (14C-uric acid transport), human URAT1; assay type: cell-based; design: host or cells: HEK-293T; details: human URAT1 wild type in HEK-293T; 100 µM 14C-uric acid, pH 5.5; read-out: IC50, inhibition of transport activity
Description: as §2, §3

human URAT1 h-F449Y = target: T3, human URAT1 h-F449Y (Homo sapiens, UniProt Q96S37, F449Y); experiment: URAT1 activity assay, h-F449Y; assay type: cell-based
T3 construct: expressed in transfected cells; host or cells: HEK-293T
T3 sequence (Q96S37 1-553 F449Y): T1 sequence (Q96S37 1-553) with F449Y
Text: as §1, §2, §3

human URAT1 h-R477K = target: T4, human URAT1 h-R477K (Homo sapiens, UniProt Q96S37, R477K); experiment: URAT1 activity assay, h-R477K; assay type: cell-based
T4 construct: expressed in transfected cells; host or cells: HEK-293T
T4 sequence (Q96S37 1-553 R477K): T1 sequence (Q96S37 1-553) with R477K
Text: as §1, §2, §3

rat URAT1-Y365F [3] = target: T5, rat URAT1-Y365F (Rattus norvegicus, UniProt Q3ZAV1, Y365F); experiment: Uric acid transport kinetics, rat URAT1-Y365F; assay type: cell-based
T5 construct: expressed in transfected cells; host or cells: HEK-293T
T5 sequence (Q3ZAV1 1-553 Y365F): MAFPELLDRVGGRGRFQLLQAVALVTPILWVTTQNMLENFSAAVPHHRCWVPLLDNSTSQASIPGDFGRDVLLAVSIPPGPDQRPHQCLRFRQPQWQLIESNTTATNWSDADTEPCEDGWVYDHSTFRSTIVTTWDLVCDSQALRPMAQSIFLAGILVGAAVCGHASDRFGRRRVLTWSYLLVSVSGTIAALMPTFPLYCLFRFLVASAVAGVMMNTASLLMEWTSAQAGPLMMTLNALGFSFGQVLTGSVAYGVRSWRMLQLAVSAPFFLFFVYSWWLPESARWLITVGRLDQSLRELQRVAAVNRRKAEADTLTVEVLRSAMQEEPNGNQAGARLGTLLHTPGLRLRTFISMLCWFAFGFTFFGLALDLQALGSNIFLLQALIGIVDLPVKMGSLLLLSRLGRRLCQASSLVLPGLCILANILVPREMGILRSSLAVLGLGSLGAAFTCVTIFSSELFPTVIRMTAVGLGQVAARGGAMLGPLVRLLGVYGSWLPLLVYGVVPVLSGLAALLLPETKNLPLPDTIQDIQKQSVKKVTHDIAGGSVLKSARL

rat URAT1 = target: T6, rat URAT1 (Rattus norvegicus, UniProt Q3ZAV1); design: method as in Tan et al., 2016; details: cited from earlier work
T6 construct: host or cells: HEK-293T
T6 sequence (Q3ZAV1 1-553): T5 sequence (Q3ZAV1 1-553 Y365F) with F365Y

rat URAT1-Y365F [4] = target: T5, rat URAT1-Y365F; design: method as in Tan et al., 2016; details: ref Tan et al., 2016; cited from earlier work
human URAT1 [5] = target: T1, human URAT1; experiment: Uric acid transport kinetics, human URAT1; assay type: cell-based; design: host or cells: HEK-293T; details: human URAT1 vs rat URAT1
Description: as §2
as §3, with “Cells were then washed three times in 25 mM MES pH 5.5/125 mM sodium gluconate, and solubilized in Ultima Gold (Perkin Elmer) prior to liquid scintillation counting.” left out

Rat URAT1-N35S/Y365F = target: T7, Rat URAT1-N35S/Y365F (Rattus norvegicus, UniProt Q3ZAV1, N35S/Y365F); experiment: Uric acid transport kinetics, rat URAT1-N35S/Y365F; assay type: cell-based
T7 construct: expressed in transfected cells; host or cells: HEK-293T
Description: as §2
as §3, with “Cells were then washed three times in 25 mM MES pH 5.5/125 mM sodium gluconate, and solubilized in Ultima Gold (Perkin Elmer) prior to liquid scintillation counting.” left out

human URAT1 [6] = target: T1, human URAT1; design: host or cells: HEK-293T; method as in Tan et al., 2016; details: cited from earlier work
Rat URAT1-N35S = target: T8, Rat URAT1-N35S (Rattus norvegicus, UniProt Q3ZAV1, N35S); experiment: Uric acid transport kinetics, rat URAT1-N35S; assay type: cell-based
T8 construct: expressed in transfected cells; host or cells: HEK-293T

[7] = ref Tan et al., 2016, listed as urate

T7 sequence (Q3ZAV1 whole entry N35S/Y365F): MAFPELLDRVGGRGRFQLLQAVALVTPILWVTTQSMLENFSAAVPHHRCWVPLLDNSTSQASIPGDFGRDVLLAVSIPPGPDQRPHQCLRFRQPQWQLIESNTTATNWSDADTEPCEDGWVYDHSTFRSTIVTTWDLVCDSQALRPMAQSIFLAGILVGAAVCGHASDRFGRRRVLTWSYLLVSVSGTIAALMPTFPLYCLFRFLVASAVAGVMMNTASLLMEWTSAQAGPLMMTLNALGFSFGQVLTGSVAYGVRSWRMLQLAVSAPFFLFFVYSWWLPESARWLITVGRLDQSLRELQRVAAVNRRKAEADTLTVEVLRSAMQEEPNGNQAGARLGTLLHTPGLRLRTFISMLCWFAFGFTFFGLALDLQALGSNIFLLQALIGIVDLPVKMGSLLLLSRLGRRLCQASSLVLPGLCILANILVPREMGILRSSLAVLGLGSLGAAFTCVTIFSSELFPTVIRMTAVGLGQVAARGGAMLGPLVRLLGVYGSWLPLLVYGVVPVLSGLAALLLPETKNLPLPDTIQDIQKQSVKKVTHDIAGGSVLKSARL
T8 sequence (Q3ZAV1 whole entry N35S): as the sequence (Q3ZAV1 whole entry N35S/Y365F) above, with F365Y counted along it

CCc1oc2ccccc2c1C(=O)c1cc(Br)c(O)c(Br)c1 [benzbromarone, Benzbromarone]
mode of inhibition of 3H-verinurad binding (human URAT1 [1]): competitive mode of inhibition

CCCN(CCC)S(=O)(=O)c1ccc(C(=O)O)cc1 [probenecid]
mode of inhibition of 3H-verinurad binding (human URAT1 [1]): competitive mode of inhibition

O=C1C(CC[S+]([O-])c2ccccc2)C(=O)N(c2ccccc2)N1c1ccccc1 (centres unmarked) [sulfinpyrazone, reference compound]
fold reduced affinity compared to human URAT1 (human URAT1 h-F241Y; h-F241Y): 7 fold | IC50 (human URAT1 h-F241Y; h-F241Y binding site point mutant): 23 µM | IC50 (human URAT1 [2]): 3.4 µM | fold reduced affinity compared to human URAT1 (human URAT1 h-F449Y; h-F449Y): 3 fold | IC50 (human URAT1 h-F449Y; h-F449Y binding site point mutant): 9.7 µM | IC50 (human URAT1 [1]): 8.6 µM | Ki (human URAT1 [1]): 52 µM | mode of inhibition of 3H-verinurad binding (human URAT1 [1]): competitive mode of inhibition | fold increased affinity compared to human URAT1 (human URAT1 h-R477K; h-R477K): 2 fold | IC50 (human URAT1 h-R477K; h-R477K binding site point mutant): 2 µM

O=c1[nH]c(=O)c2[nH]c(=O)[nH]c2[nH]1 [uric acid]
fold increase in urate affinity over rat URAT1 (rat URAT1-Y365F [3]): 1.5 fold | K m (µM), uric acid transport affinity (rat URAT1; [7]): 857 µM | K m (µM), uric acid transport affinity (rat URAT1; ref Tan et al., 2016): 857 ± 6 µM | K m (µM), uric acid transport affinity (rat URAT1-Y365F [4]): 560 ± 28 µM | fold higher affinity for urate of human URAT1 relative to rat URAT1 (human URAT1 [5]): 7 fold | K m (µM), uric acid transport affinity (Rat URAT1-N35S/Y365F; Rat URAT1-N35S/Y365F): 222 ± 16 µM | fold increase in urate affinity relative to rat URAT1 (Rat URAT1-N35S/Y365F; rat URAT1-N35S/Y365F): ~4 fold | K m (µM), uric acid transport affinity (human URAT1 [6]; [7]): 122 µM | K m (µM), uric acid transport affinity (human URAT1 [6]; ref Tan et al., 2016): 122 ± 3 µM | K m (µM), uric acid transport affinity (Rat URAT1-N35S; Rat URAT1-N35S): 697 ± 93 µM | urate affinity phenotype relative to rat URAT1 (Rat URAT1-N35S; rat URAT1-N35S): no phenotype
